Test results reported in ChEMBL document CHEMBL1156650, “Furan oligomers and beta-carbolines from terrestrial streptomycetes” (J Nat Prod, 2008).
The source made the active and inactive calls.

How the values were obtained:
Type in all cases: functional, organism-based
Chlorella vulgaris = experiment: Antimicrobial activity against Chlorella vulgaris by agar diffusion test
Chlorella sorokiniana = experiment: Antimicrobial activity against Chlorella sorokiniana by agar diffusion test
Rhizomucor miehei = experiment: Antimicrobial activity against Mucor miehei by agar diffusion test
Escherichia coli = experiment: Antimicrobial activity against Escherichia coli by agar diffusion test
Staphylococcus aureus = experiment: Antimicrobial activity against Staphylococcus aureus by agar diffusion test
Bacillus subtilis = experiment: Antimicrobial activity against Bacillus subtilis by agar diffusion test
Candida albicans = experiment: Antimicrobial activity against Candida albicans by agar diffusion test
[1] = tested on: Streptomyces viridochromogenes; experiment: Antimicrobial activity against Streptomyces viridochromogenes Tu57 by agar diffusion test
Desmodesmus subspicatus = experiment: Antimicrobial activity against Scenedesmus subspicatus by agar diffusion test

Measured: Activity

COC(OCc1ccc(C=O)o1)c1ccc(CO)o1 (configuration not stated)
inactive: all assays above

OCc1ccc(-c2nccc3c2[nH]c2ccccc23)o1
inactive: all assays above

COC(=O)/C=C/C(=O)c1nccc2c1[nH]c1ccccc12
inactive: all assays above

CC(=O)OCc1ccc(COC(C)=O)o1
inactive: all assays above

CC1=C(O)C(=O)/C(=C\c2ccc(CO)o2)O1
inactive: all assays above

O=C(O)/C=C/C(=O)c1nccc2c1[nH]c1ccccc12
inactive: all assays above

COC(OCc1ccc(C(OC)OCc2ccc(C=O)o2)o1)c1ccc(CO)o1 (configuration not stated)
inactive: all assays above

CC(=O)OCc1ccc(CO)o1
inactive: all assays above
